According to paper PMC9921273, “Omega-3 PUFAs as a Dietary Supplement in Senile Systemic Amyloidosis” (Nutrients, 2023):

What was measured:
transthyretin (wt-TTR) [1] = target: T1, transthyretin (wt-TTR) (Homo sapiens, UniProt P02766); assay: ANS fluorescence displacement binding assay (also turbidimetric and ThT fibril formation assays); design: wt-TTR tetramer, human plasma
transthyretin (wt-TTR) [2] = target: T1, transthyretin (wt-TTR); assay: ANS fluorescence displacement binding assay (also turbidimetric fibril formation assay); design: wt-TTR tetramer, human plasma

| IC50 (transthyretin (wt-TTR) [1]) | IC50 (transthyretin (wt-TTR) [2]) | SMILES |
| --- | --- | --- |
| 12.1 ± 0.07 µM | – | CC/C=C\C/C=C\C/C=C\C/C=C\C/C=C\C/C=C\CCC(=O)O [DHA, docosahexaenoic acid] |
| – | 13 ± 0.08 µM | CC/C=C\C/C=C\C/C=C\C/C=C\C/C=C\CCCC(=O)O [EPA, eicosapentaenoic acid] |
